IC50 data for 84 compounds are collected here from the Kinase Knowledgebase extract (Sharma et al. 2016).

Structures are written as SMILES.

In the assay the target is PIK3CG (human) (UniProt P48736). Kind of assay: Inhibition of PIK3CG Kinase Activity.
Sequence of PIK3CG (human) (P48736 whole entry, looked up): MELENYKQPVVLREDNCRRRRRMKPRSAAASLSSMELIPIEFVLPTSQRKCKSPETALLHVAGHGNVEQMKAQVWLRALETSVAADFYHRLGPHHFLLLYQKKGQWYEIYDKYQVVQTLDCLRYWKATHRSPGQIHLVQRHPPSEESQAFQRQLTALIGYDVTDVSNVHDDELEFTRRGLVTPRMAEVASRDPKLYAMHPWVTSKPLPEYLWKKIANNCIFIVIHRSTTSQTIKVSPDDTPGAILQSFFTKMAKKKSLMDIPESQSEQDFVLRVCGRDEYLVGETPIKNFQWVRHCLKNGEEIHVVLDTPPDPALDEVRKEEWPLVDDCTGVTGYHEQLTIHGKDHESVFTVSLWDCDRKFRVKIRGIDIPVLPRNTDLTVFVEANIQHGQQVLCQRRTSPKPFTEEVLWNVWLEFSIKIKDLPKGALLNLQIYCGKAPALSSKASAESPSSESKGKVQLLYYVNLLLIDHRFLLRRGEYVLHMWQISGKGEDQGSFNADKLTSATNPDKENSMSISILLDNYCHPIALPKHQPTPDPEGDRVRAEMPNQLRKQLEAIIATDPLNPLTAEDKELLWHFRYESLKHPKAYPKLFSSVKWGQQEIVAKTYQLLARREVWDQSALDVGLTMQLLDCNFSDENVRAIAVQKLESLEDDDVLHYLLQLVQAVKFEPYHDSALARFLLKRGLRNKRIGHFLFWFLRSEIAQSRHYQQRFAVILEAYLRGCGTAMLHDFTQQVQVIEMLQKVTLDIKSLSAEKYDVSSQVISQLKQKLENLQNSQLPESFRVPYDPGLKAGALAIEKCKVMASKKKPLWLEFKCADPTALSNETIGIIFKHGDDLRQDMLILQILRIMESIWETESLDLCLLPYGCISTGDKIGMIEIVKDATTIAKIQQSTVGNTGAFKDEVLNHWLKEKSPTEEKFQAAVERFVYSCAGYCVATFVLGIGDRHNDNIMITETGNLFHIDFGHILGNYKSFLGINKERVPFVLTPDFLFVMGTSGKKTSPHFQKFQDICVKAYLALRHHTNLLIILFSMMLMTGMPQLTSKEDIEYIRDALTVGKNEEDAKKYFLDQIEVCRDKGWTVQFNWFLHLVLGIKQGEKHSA

Regarding `Cc1nc(Nc2nc[nH]n2)sc1-c1ccc(S(N)(=O)=O)cc1`, the IC50 was < 600 nM.

For the compound `Cc1nc(Nc2cc[nH]n2)sc1-c1cccc(S(N)(=O)=O)c1`, the IC50 was < 600 nM.

`COc1cncc(Nc2nc(C)c(-c3ccc(S(=O)(=O)NC4CC4)cc3)s2)n1`: the IC50 is < 600 nM.

Turning to `Cc1nc(Nc2cnccn2)sc1-c1ccc(Cl)c(S(=O)(=O)NCCO)c1`, the IC50 was < 600 nM.

As to `Cc1csc(Nc2nc(C)c(-c3ccc(S(N)(=O)=O)cc3)s2)n1`, the IC50 is < 600 nM.

For `Cc1nc(Nc2cc[nH]n2)sc1-c1ccc(S(C)(=O)=O)c(F)c1`, the IC50 is < 600 nM.

Turning to `Cc1nc(Nc2cnccn2)sc1-c1cccc(S(=O)(=O)NCCO)c1`, the half-maximal inhibitory concentration (IC50) was < 600 nM.

Consider `Cc1nc(Nc2cnccn2)sc1-c1ccc(S(C)(=O)=O)c(-n2ccnc2C(C)C)c1`, for which the 50% inhibitory concentration (IC50) was < 600 nM.

As for `Cc1nc(Nc2cc[nH]n2)sc1-c1ccc(C(=O)O)cc1`, the IC50 was < 600 nM.

Consider `Cc1nc(Nc2cc[nH]n2)sc1-c1ccc(S(N)(=O)=O)cc1`, for which the IC50 is < 600 nM.

In the case of `CCc1nnc(Nc2nc(C)c(-c3cccc(S(N)(=O)=O)c3)s2)s1`, the IC50 was < 600 nM.

For `COc1cncc(Nc2nc(C)c(-c3ccc(S(N)(=O)=O)cc3)s2)n1`, the IC50 is < 600 nM.

As to `Cc1nc(Nc2n[nH]cc2Br)sc1-c1ccc(S(C)(=O)=O)c(F)c1`, the IC50 is < 600 nM.

`Cc1nc(Nc2cc[nH]n2)sc1-c1ccc(Cl)c(S(=O)(=O)N(CCO)CCO)c1`: the IC50 is < 600 nM.

For the compound `Cc1nc(Nc2cc[nH]n2)sc1-c1ccc(S(C)(=O)=O)c(-n2ccnc2)c1`, the IC50 was < 600 nM.

For `Cc1nc(Nc2cnccn2)sc1-c1ccc(S(N)(=O)=O)c(Cl)c1`, the IC50 was < 600 nM.

Turning to `Cc1nc(Nc2cc[nH]n2)sc1-c1ccc(S(C)(=O)=O)c(OCCN2CCOCC2)c1`, the IC50 was < 600 nM.

With `COc1ccc(Nc2nc(C)c(-c3ccc(Cl)c(S(C)(=O)=O)c3)s2)cn1`, the IC50 was < 600 nM.

On to `Cc1nc(Nc2ccc(Cl)nn2)sc1-c1ccc(S(N)(=O)=O)cc1`, for which the IC50 was < 600 nM.

As to `Cc1nc(Nc2nncs2)sc1-c1ccc(S(N)(=O)=O)cc1`, the IC50 was < 600 nM.

Turning to `CCN(CC)CCCNS(=O)(=O)c1cc(-c2sc(Nc3cc[nH]n3)nc2C)ccc1Cl`, the half-maximal inhibitory concentration (IC50) is < 600 nM.

`Cc1nc(Nc2nnc(CCN(C)C)s2)sc1-c1ccc(S(N)(=O)=O)cc1`: the IC50 was < 600 nM.

Turning to `CNS(=O)(=O)c1ccc(-c2sc(Nc3cnccn3)nc2C)cc1`, the 50% inhibitory concentration (IC50) is < 600 nM.

Turning to `Cc1nnc(Nc2nc(C)c(-c3ccc(S(N)(=O)=O)cc3)s2)s1`, the IC50 is < 600 nM.

As to `Cc1cc(Nc2nc(C)c(-c3ccc(Cl)c(S(=O)(=O)NCCO)c3)s2)n(C)n1`, the IC50 was < 600 nM.

Regarding `Cc1nc(Nc2cncc(N3CCN(C)CC3)n2)sc1-c1ccc(S(N)(=O)=O)cc1`, the IC50 was < 600 nM.

Regarding `Cc1cnc(Nc2nc(C)c(-c3ccc(Cl)c(S(=O)(=O)NCCO)c3)s2)s1`, the IC50 is < 600 nM.

Regarding `Cc1nc(Nc2cnccn2)sc1-c1ccc([S+](C)[O-])cc1` (centres undefined), the IC50 was < 600 nM.

As to `CCCc1nccn1-c1cc(-c2sc(Nc3nnc(CC)s3)nc2C)ccc1S(C)(=O)=O`, the IC50 was < 600 nM.

On to `Cc1nc(Nc2cc[nH]n2)sc1-c1ccc(S(C)(=O)=O)c(C(F)(F)F)c1`, for which the IC50 is < 600 nM.

For the compound `COc1cc(Nc2nc(C)c(-c3ccc(S(N)(=O)=O)cc3)s2)ncn1`, the IC50 was < 600 nM.

Turning to `Cc1nc(Nc2cccnc2)sc1-c1ccc(S(N)(=O)=O)c(Cl)c1`, the IC50 was < 600 nM.

As to `Cc1nc(Nc2cccnc2)sc1-c1ccc(S(C)(=O)=O)c(Cl)c1`, the IC50 is < 600 nM.

`Cc1nc(Nc2cc[nH]n2)sc1-c1ccc(S(C)(=O)=O)c(N2CCN(C)CC2)c1`: the 50% inhibitory concentration (IC50) was < 600 nM.

Consider `Cc1nc(Nc2nnc(N3CCOCC3)s2)sc1-c1ccc(S(C)(=O)=O)c(C(F)(F)F)c1`, for which the IC50 was < 600 nM.

On to `CCc1nccn1-c1cc(-c2sc(Nc3cnccn3)nc2C)ccc1S(C)(=O)=O`, for which the IC50 is < 600 nM.

On to `CNS(=O)(=O)c1ccc(-c2sc(Nc3cncc(OC)n3)nc2C)cc1`, for which the IC50 was < 600 nM.

In the case of `Cc1nc(Nc2cnccn2)sc1-c1cccc(S(N)(=O)=O)c1`, the IC50 was < 600 nM.

On to `Cc1nc(Nc2cncc(Cl)n2)sc1-c1ccc(S(C)(=O)=O)c(C(F)(F)F)c1`, for which the half-inhibitory concentration (IC50) is < 600 nM.

For `Cc1nc(Nc2ccncc2)sc1-c1ccc(S(N)(=O)=O)cc1`, the IC50 was < 600 nM.

As for `Cc1nc(Nc2nnc(CCC(=O)O)s2)sc1-c1ccc(S(N)(=O)=O)cc1`, the IC50 was < 600 nM.

Turning to `Cc1nc(Nc2cccnc2)sc1-c1ccc(S(N)(=O)=O)cc1`, the IC50 is < 600 nM.

As to `CCOc1cccc(Nc2nc(C)c(-c3ccc(S(N)(=O)=O)cc3)s2)n1`, the IC50 was < 600 nM.

Regarding `Cc1nc(Nc2cnccn2)sc1-c1ccc(Cl)c(S(N)(=O)=O)c1`, the IC50 is < 600 nM.

For `CCc1nnc(Nc2nc(C)c(-c3ccc(S(=O)(=O)NCCO)cc3)s2)s1`, the IC50 is < 600 nM.

With `Cc1nc(Nc2cncc(N3CCN(C)CC3)n2)sc1-c1ccc(S(C)(=O)=O)c(C(F)(F)F)c1`, the IC50 is < 600 nM.

On to `Cc1nc(Nc2cnccn2)sc1-c1ccc(S(=O)(=O)NC2CC2)cc1`, for which the half-inhibitory concentration (IC50) was < 600 nM.

`COc1ccc(Nc2nc(C)c(-c3ccc(S(N)(=O)=O)cc3)s2)cn1`: the IC50 was < 600 nM.

As for `Cc1nc(Nc2cc[nH]n2)sc1-c1ccc(Cl)c(S(=O)(=O)NCCO)c1`, the IC50 was < 600 nM.

For the compound `Cc1nnc(Nc2nc(C)c(-c3ccc(S(C)(=O)=O)c(-n4ccnc4)c3)s2)s1`, the IC50 is < 600 nM.

`Cc1nc(Nc2cncc(NCCN3CCOCC3)n2)sc1-c1ccc(S(N)(=O)=O)cc1`: the IC50 was < 600 nM.

Turning to `Cc1cnc(Nc2nc(C)c(-c3ccc(S(N)(=O)=O)cc3)s2)s1`, the IC50 is < 600 nM.

As for `Cc1nc(Nc2cnccn2)sc1-c1ccc(S(C)(=O)=O)c(C(F)(F)F)c1`, the IC50 was < 600 nM.

`Cc1nc(Nc2cncc(N3CCOCC3)n2)sc1-c1ccc(S(N)(=O)=O)cc1`: the IC50 is < 600 nM.

For `Cc1nc(Nc2nccs2)sc1-c1ccc(Cl)c(S(=O)(=O)NCCO)c1`, the 50% inhibitory concentration (IC50) was < 600 nM.

For `Cc1nc(Nc2nccs2)sc1-c1ccc(S(N)(=O)=O)cc1`, the IC50 is < 600 nM.

Turning to `Cc1nc(Nc2cnccn2)sc1-c1ccc(S(C)(=O)=O)c(-n2ccnc2)c1`, the IC50 is < 600 nM.

As for `CCCc1nccn1-c1cc(-c2sc(Nc3cc[nH]n3)nc2C)ccc1S(C)(=O)=O`, the half-maximal inhibitory concentration (IC50) was < 600 nM.

`CCN(CC)CCCNc1cncc(Nc2nc(C)c(-c3ccc(S(N)(=O)=O)cc3)s2)n1`: the IC50 was < 600 nM.

Regarding `Cc1nc(Nc2nnc(N3CCN(C)CC3)s2)sc1-c1ccc(S(C)(=O)=O)c(C(F)(F)F)c1`, the half-maximal inhibitory concentration (IC50) is < 600 nM.

In the case of `Cc1nc(Nc2cnccn2)sc1-c1ccc(S(C)(=O)=O)c(-n2ccnc2C)c1`, the IC50 is < 600 nM.

Take `Cc1nc(Nc2cnccn2)sc1-c1ccc(C(=O)O)cc1`: the IC50 is < 600 nM.

On to `Cc1nc(Nc2ccn(C)n2)sc1-c1ccc(S(C)(=O)=O)c(F)c1`, for which the IC50 was < 600 nM.

Consider `Cc1nc(Nc2cc[nH]n2)sc1-c1cccc(S(=O)(=O)NCCO)c1`, for which the 50% inhibitory concentration (IC50) is < 600 nM.

For `Cc1nc(Nc2ccn(C)n2)sc1-c1ccc(Cl)c(S(=O)(=O)NCCO)c1`, the 50% inhibitory concentration (IC50) was < 600 nM.

For the compound `Cc1nc(Nc2nnc(CCC(=O)O)s2)sc1-c1ccc(S(C)(=O)=O)c(C(F)(F)F)c1`, the IC50 is < 600 nM.

As for `Cc1nc(Nc2ccccn2)sc1-c1ccc(S(N)(=O)=O)cc1`, the IC50 was < 600 nM.

Turning to `Cc1nc(Nc2nnc(CCN3CCOCC3)s2)sc1-c1ccc(S(N)(=O)=O)cc1`, the IC50 was < 600 nM.

As to `CCOC(=O)CCc1nnc(Nc2nc(C)c(-c3ccc(S(N)(=O)=O)cc3)s2)s1`, the IC50 was < 600 nM.

With `Cc1nc(Nc2cncc(Cl)n2)sc1-c1ccc(S(N)(=O)=O)cc1`, the IC50 is < 600 nM.

Consider `Cc1nc(Nc2cnccn2)sc1-c1ccc(S(C)(=O)=O)cc1`, for which the IC50 was < 600 nM.

On to `Cc1nc(Nc2ccc(Cl)cn2)sc1-c1ccc(S(N)(=O)=O)cc1`, for which the IC50 was < 600 nM.

Regarding `Cc1nc(Nc2nnc(CCN3CCOCC3)s2)sc1-c1ccc(S(C)(=O)=O)c(C(F)(F)F)c1`, the IC50 is < 600 nM.

In the case of `COc1ccc(-c2sc(Nc3cnccn3)nc2C)cc1S(N)(=O)=O`, the IC50 is < 600 nM.

In the case of `Cc1nc(Nc2ccc(N3CCN(C)CC3)nc2)sc1-c1ccc(S(C)(=O)=O)cc1`, the IC50 was < 600 nM.

As for `Cc1cnc(Nc2nc(C)c(-c3ccc(C(=O)O)cc3)s2)s1`, the half-inhibitory concentration (IC50) is < 600 nM.

For `Cc1nc(Nc2nnn[nH]2)sc1-c1ccc(S(N)(=O)=O)cc1`, the IC50 is < 600 nM.

Regarding `Cc1nc(Nc2cnccn2)sc1-c1ccc(S(N)(=O)=O)cc1`, the IC50 was < 600 nM.

With `Cc1nc(Nc2nnc(C3CCC(C(=O)O)CC3)s2)sc1-c1ccc(S(C)(=O)=O)c(C(F)(F)F)c1` (centres undefined), the IC50 is < 600 nM.

`Cc1nc(Nc2cncc(Cl)n2)sc1-c1ccc(S(C)(=O)=O)cc1`: the IC50 was < 600 nM.

As for `Cc1nc(Nc2nnc(CC(=O)O)s2)sc1-c1ccc(S(N)(=O)=O)cc1`, the IC50 is < 600 nM.

Turning to `Cc1nc(Nc2cncc(NCCCO)n2)sc1-c1ccc(S(N)(=O)=O)cc1`, the IC50 was < 600 nM.

As to `CCN(CC)CCN(C)c1cc(-c2sc(Nc3cc[nH]n3)nc2C)ccc1S(C)(=O)=O`, the IC50 was < 600 nM.

Consider `Cc1nc(Nc2ncccn2)sc1-c1ccc(S(N)(=O)=O)cc1`, for which the IC50 is < 600 nM.
